The test system of the assay is Raf-1^gof intestinal tumors. As to conditions: assessed three days later; for Log2 (fold) (luciferase activity, log2 of the fold difference relative to DMSO controls) / Fold (luciferase activity, fold difference relative to DMSO controls): screen of 480 ICCB compounds in vials, compounds fed to flies with one-day old Raf-1^gof tumors, esg-Gal4 luciferase; for Fold (luciferase activity, fold difference relative to DMSO controls) / Fold (luciferase activity relative to DMSO controls): averaged from multiple wells; for Log2 (fold) of luciferase activity relative to DMSO controls / Fold (luciferase activity relative to DMSO controls): ICCB compounds fed in vials to flies with one-day old Raf-1^gof tumors.

Structures are written as SMILES.
Note: test concentration or dose not given here.

Regarding `CCCCCCCCCCCCC/C=C/[C@@H](O)[C@H](CO)NC(C)=O` [C2 CERAMIDE], the “Log2 (fold) (luciferase activity, log2 of the fold difference relative to DMSO controls)” value was −0.493 and the “Fold (luciferase activity, fold difference relative to DMSO controls)” value was determined as 0.711.

`CCCCCCCCCCCCCCC[C@@H](O)[C@H](CO)NC(C)=O` [C2 DIHYDROCERAMIDE]: the “Log2 (fold) (luciferase activity, log2 of the fold difference relative to DMSO controls)” value is −0.466 and the “Fold (luciferase activity, fold difference relative to DMSO controls)” value is on record as 0.724.

With `CCCCCCCCCCCCC/C=C/[C@@H](O)[C@H](CO)NC(=O)CCCCCCC` [C8 CERAMIDE], the “Log2 (fold) (luciferase activity, log2 of the fold difference relative to DMSO controls)” value was −0.427 and the “Fold (luciferase activity, fold difference relative to DMSO controls)” value worked out at 0.744.

In the case of `CCCCCCCCCCCCC/C=C/[C@@H](O)[C@H](CO)NCCCCCCCC` [C8 CERAMINE], the “Log2 (fold) (luciferase activity, log2 of the fold difference relative to DMSO controls)” value was −0.302 and the “Fold (luciferase activity, fold difference relative to DMSO controls)” value is 0.811.

As to `CCCCCCCCCCCCCCC[C@@H](O)[C@H](CO)NC(=O)CCCCCCC` [C8 DIHYDROCERAMIDE], the “Log2 (fold) (luciferase activity, log2 of the fold difference relative to DMSO controls)” value is recorded as −0.423 and the “Fold (luciferase activity, fold difference relative to DMSO controls)” value was 0.746.

With `CCCCCCCCCCCCC/C=C/[C@@H](O)[C@H](CO)NC(=O)CCCCCCCCCCCCCCC` [C16 CERAMIDE], the “Log2 (fold) (luciferase activity, log2 of the fold difference relative to DMSO controls)” value is listed as −0.496 and the “Fold (luciferase activity, fold difference relative to DMSO controls)” value was 0.709.

Consider `CCCCCCCCCCCCCCCCOC[C@H](COP(=O)([O-])OCC[N+](C)(C)C)OC(=O)NC` [C-PAF], for which the “Log2 (fold) of luciferase activity relative to DMSO controls” value came to 0.119 and the “Fold (luciferase activity relative to DMSO controls)” value was found to be 1.086 fold.

As for `CCCNC(=O)[C@H]1O[C@@H]1C(=O)N[C@H](C(=O)N1CCC[C@H]1C(=O)OC)[C@@H](C)CC` [CA-074-Me], the “Log2 (fold) of luciferase activity relative to DMSO controls” value is given as −0.114 and the “Fold (luciferase activity relative to DMSO controls)” value came out at 0.924 fold.

Consider `O=C(/C=C/c1ccc(O)c(O)c1)OCCc1ccccc1` [CAPE], for which the “Log2 (fold) (luciferase activity, log2 of the fold difference relative to DMSO controls)” value is −0.324 and the “Fold (luciferase activity, fold difference relative to DMSO controls)” value was determined as 0.799.

On to `CCCCC[C@H](O)/C=C/[C@@H]1[C@H]2C/C(=C/CCCC(=O)O)C[C@H]2C[C@H]1O` [CARBACYCLIN], for which the “Log2 (fold) (luciferase activity, log2 of the fold difference relative to DMSO controls)” value is given as −0.283 and the “Fold (luciferase activity, fold difference relative to DMSO controls)” value came to 0.822.

On to `N#C/C(=C\c1ccc(O)c(O)c1)C(=O)OC/C=C/c1ccccc1` [CDC], for which the “Log2 (fold) (luciferase activity, log2 of the fold difference relative to DMSO controls)” value was −0.360 and the “Fold (luciferase activity, fold difference relative to DMSO controls)” value turned out to be 0.779.

`O=C1CSC(c2ccccc2Cl)c2cc(Cl)ccc2N1` (stereo not drawn) [CGP-37157]: the “Log2 (fold) of luciferase activity relative to DMSO controls” value was −0.195 and the “Fold (luciferase activity relative to DMSO controls)” value was determined as 0.873 fold.

Turning to `CC1(COc2ccc(CC3SC(=O)NC3=O)cc2)CCCCC1` (stereo not drawn) [CIGLITAZONE], the “Log2 (fold) of luciferase activity relative to DMSO controls” value came out at 0.038 and the “Fold (luciferase activity relative to DMSO controls)” value is recorded as 1.027 fold.

As to `CC(C)NCC(O)c1ccc(N)c(C#N)c1` (stereo not drawn) [CIMATEROL], the “Log2 (fold) (luciferase activity, log2 of the fold difference relative to DMSO controls)” value is listed as −0.598 and the “Fold (luciferase activity, fold difference relative to DMSO controls)” value stood at 0.661.

On to `c1ccc(C2CC2)c(OCC2=NCCN2)c1` [CIRAZOLINE], for which the “Log2 (fold) of luciferase activity relative to DMSO controls” value was determined as 0.121 and the “Fold (luciferase activity relative to DMSO controls)” value was 1.088 fold.

Turning to `Clc1ccc(-c2nc3sccn3c2/C=N/OCc2ccc(Cl)c(Cl)c2)cc1` [CITCO], the “Log2 (fold) of luciferase activity relative to DMSO controls” value is recorded as −0.162 and the “Fold (luciferase activity relative to DMSO controls)” value is reported as 0.894 fold.

On to `CCOC(=O)C(C)(C)Oc1ccc(Cl)cc1` [CLOFIBRATE], for which the “Log2 (fold) of luciferase activity relative to DMSO controls” value came to 0.221 and the “Fold (luciferase activity relative to DMSO controls)” value worked out at 1.165 fold.

As for `O=C([O-])CCC/C=C\CC1C(O)CC(O)C1/C=C/C(O)COc1cccc(Cl)c1.[Na+]` (stereo not drawn) [CLOPROSTENOL Na], the “Log2 (fold) of luciferase activity relative to DMSO controls” value is listed as 0.101 and the “Fold (luciferase activity relative to DMSO controls)” value worked out at 1.073 fold.

These data come from US20130096067A1, “DROSOPHILA TUMOR STEM CELL MODEL AND USES THEREOF” (priority 2011, published 2013).
